Assay results as given in patent publication US8148404B2, “Modulators of CB1 receptors” (7TM Pharma A/S, priority 2006, dated 2012).

Biological target: T1, human CB1 receptor (Homo sapiens, UniProt P21554)
T1 construct: expressed in transfected cells; membranes used
Experiment: Cannabinoid Receptor-1 functional assay: inhibition of CP55940-induced [35S]GTPγS binding to membranes of CHO-K1 cells expressing human CB1
Format: biochemical
Conditions: 3 nM CP55940, [35S]GTPγS SPA, hCB1 membranes; read-out: IC50 value for antagonizing a CB1 receptor agonist
Description: Transfection and Cell Culture—The cDNA encoding the human CB1 (Cannabinoid Receptor-1) receptor (GenBank accession number NM_016083) was cloned from a human adipose tissue cDNA library and cloned into the eukaryotic expression vector pcDNA3.1 (Invitrogen).
Chinese Hamster Ovary cells (CHO-K1) stably expressing recombinant human CB1 were generated by transfecting the plasmid containing the coding sequence of the human CB1 receptor in CHO-K1 cells, using lipofectamin, according to the manufacturer instructions. Resistant clones were selected in the presence of 600 μg/ml G418 (Life technology). Stably transfected CHO-K1 cells were maintained in Ham's F-12 culture medium (Invitrogen), supplemented with 10% fetal calf serum (Invitrogen), 100 U/ml penicillin, 100 μg/ml streptomycin (Life Technology), and 600 μg/ml G418.
Functional activities of the above examples of compounds of the invention were assessed in vitro by measuring their ability to inhibit CP55940-induced [^35S]GTPγS binding to membranes prepared from CHO-K1 cells expressing the human CB1 receptor (described in Transfection and Cell Culture). CP55940 is a well known non-selective CB1 and CB2 receptor agonist (e.g Felder et al., 1995, Molecular Pharmacology, (48) 443-50). Membranes were prepared by a standard procedure. Briefly, cells were harvested using 10 mM EDTA and collected by centrifugation. Pelleted cells were homogenized in ice-cold 20 mM Hepes (pH 7.4), 10 mM EDTA and protease inhibitors (Complete protease inhibitor cocktail tablet, Roche) using an Ultra Turrax Homogenizer. The homogenate was centrifuged at 14 000 rpm for 45 min. at 4° C. The resultant pellet was resuspended in the same buffer but with only 0.1 mM EDTA and was again centrifuged at 14 000 rpm for 45 min. at 4° C. The resulting pellet (membranes) was resuspended in 20 mM Hepes (pH 7.4), 0.1 mM EDTA, 2 mM MgCl2 and protease inhibitors and protein concentration was determined by Micro BCA Protein Assay Reagent Kit (Pierce Biotechnology) according to the manufacturer instructions. The [^35S]GTPγS SPA (Scintillation Proximity Assay) binding assay was performed by incubating 5 μg/well hCB1-membranes with 1 nM [^35S]GTPγS (Perkin Elmer—NEG 030H) in the presence of 3 nM of CP55940 and various concentrations of the test compounds at room temperature for 1 hr in 96-well microtiter plates. 0.4 mg/well SPA beads (PVT-WGA; RPNQ0001 Amersham Pharmacia Biotech) were then added and the incubation continued for further 30 min. on an orbital shaker. The assay buffer contained 50 mM HEPES (pH 7.5), 50 mM NaCl, 2.5 mM MgCl2, 0.1% BSA, 1 μM GDP and 100 μg/ml Saponin. Microtiter plates were centrifuged at 1500 rpm for 5 min. and radioactivity was read immediately using a Topcounter (PerkinElmer Life Sciences). Data were analyzed and IC50 values determined by non-linear regression using the Prism software (GraphPad Software, San Diego).

T1 sequence (P21554 whole entry): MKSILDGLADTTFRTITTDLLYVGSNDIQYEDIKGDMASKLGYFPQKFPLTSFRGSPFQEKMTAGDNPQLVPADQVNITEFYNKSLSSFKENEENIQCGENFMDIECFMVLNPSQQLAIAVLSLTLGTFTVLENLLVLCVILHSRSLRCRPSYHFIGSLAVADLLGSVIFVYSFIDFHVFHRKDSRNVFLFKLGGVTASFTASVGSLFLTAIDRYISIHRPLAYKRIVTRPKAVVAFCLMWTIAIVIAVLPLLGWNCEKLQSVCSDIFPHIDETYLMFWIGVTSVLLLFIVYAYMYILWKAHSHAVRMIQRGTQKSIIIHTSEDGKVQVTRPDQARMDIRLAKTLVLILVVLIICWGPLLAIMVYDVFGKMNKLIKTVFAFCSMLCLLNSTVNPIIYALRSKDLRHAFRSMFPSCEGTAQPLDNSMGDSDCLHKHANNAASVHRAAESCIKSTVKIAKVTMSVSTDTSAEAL

| IC50 | Structure (SMILES) |
| --- | --- |
| < 300 nM | CO[C@H]1CN(C(=O)c2nn(-c3ccccc3Cl)c(-c3ccc(Cl)cc3)c2CC(=O)O)CC[C@@H]1c1ccccc1 (relative stereo) [[1.56], {1-(2-Chloro-phenyl)-5-(4-chloro-phenyl)-3-[trans-4-phenyl-3-methoxy-piper-idine-1-carbonyl]-1H-pyrazol-4-yl}-acetic acid] |
| < 300 nM | O=C(O)Cc1c(C(=O)N2CC=C(c3ccccc3)CC2)nn(-c2ccccc2Cl)c1-c1ccc(Cl)cc1 [Compound [1.1], [1-(2-Chloro-phenyl)-5-(4-chloro-phenyl)-3-(4-phenyl-3,6-dihydro-2H-pyridine-1-carbonyl)-1H-pyrazol-4-yl]-acetic acid] |
| 300 to 3000 nM | O=C(O)Cc1c(C(=O)N2CCN(c3ccccc3)CC2)nn(-c2ccccc2Cl)c1-c1ccc(Cl)cc1 [Compound [1.2], [1-(2-Chloro-phenyl)-5-(4-chloro-phenyl)-3-(4-phenyl-piperazine-1-carbonyl)-1H-pyrazol-4-yl]-acetic acid] |
| < 300 nM | O=C(O)COc1c(C(=O)N2CCC(c3ccc(F)cc3)CC2)nn(-c2ccccc2Cl)c1-c1ccc(Cl)cc1 [Compound [1.3], {5-(4-Chloro-phenyl)-1-(2-chloro-phenyl)-3-[4-(4-fluoro-phenyl)-piper-idine-1-carbonyl]-1H-pyrazol-4-yloxy}-acetic acid] |
| 3000 to 10000 nM | O=C(O)Cc1c(C(=O)N2CCC(O)(c3cccnc3)CC2)nn(-c2ccccc2Cl)c1-c1ccc(Cl)cc1 [Compound [1.8], [1-(2-Chloro-phenyl)-5-(4-chloro-phenyl)-3-(4′-hydroxy-3′,4′,5′,6′-tetrahydro-2′H-[3,4′]bipyridinyl-1′-carbonyl)-1H-pyrazol-4yl]-acetic acid] |
| < 300 nM | O=C(O)Cc1c(C(=O)N2CCC(c3cccc(F)c3)CC2)nn(-c2ccccc2Cl)c1-c1ccc(Cl)cc1 [Compound [1.13], {1-(2-Chloro-phenyl)-5-(4-chloro-phenyl)-3-[4-(3-fluoro-phenyl)-piper-idine-1-carbonyl]-1H-pyrazol-4-yl}-acetic acid] |
| < 300 nM | CC(C(=O)O)c1c(C(=O)N2CCC(c3ccccc3F)CC2)nn(-c2ccccc2Cl)c1-c1ccc(Cl)cc1 (stereo not shown) [Compound [1.52], 2-{1-(2-Chloro-phenyl)-5-(4-chloro-phenyl)-3-[4-(2-fluoro-phenyl)-piperidine-1-carbonyl]-1H-pyrazol-4-yl}-propionic acid] |
| < 300 nM | O=C(O)C(O)c1c(C(=O)N2CCC(c3ccccc3F)CC2)nn(-c2ccccc2Cl)c1-c1ccc(Cl)cc1 (stereo not shown) [Compound [1.65], {1-(2-Chloro-phenyl)-5-(4-chloro-phenyl)-3-[4-(2-fluoro-phenyl)-piperidine-1-carbonyl]-1H-pyrazol-4-yl}-2-hydroxy acetic acid] |
| 300 to 3000 nM | O=C(c1nn(-c2ccccc2Cl)c(-c2ccc(Cl)cc2)c1Cc1nn[nH]n1)N1Cc2ccc(F)cc2C1 [Compound [3.1], [5-(4-Chloro-phenyl)-1-(2-chloro-phenyl)-4-(2H-tetrazol-5-ylmethyl)-1H-pyrazol-3-yl]-(5-fluoro-1,3-dihydro-isoindol-2-yl)-methanone] |
| < 300 nM | O=C(O)Cc1c(C(=O)N2CCc3ccccc3C2)nn(-c2ccccc2Cl)c1-c1ccc(Cl)cc1 [[1.4], [5-(4-Chloro-phenyl)-1-(2-chloro-phenyl)-3-(3,4-dihydro-1H-isoquinoline-2-carbonyl)-1H-pyrazol-4-yl]-acetic acid] |
| < 300 nM | O=C(O)Cc1c(C(=O)N2CCC(c3ccc(F)cc3)CC2)nn(-c2ccccc2Cl)c1-c1ccc(Cl)cc1 [[1.5], {5-(4-Chloro-phenyl)-1-(2-chloro-phenyl)-3-[4-(4-fluoro-phenyl)-piperidine-1-carbonyl]-1H-pyrazol-4-yl}-acetic acid] |
| < 300 nM | O=C(O)Cc1c(C(=O)N2CCC(O)(Cc3ccccc3)CC2)nn(-c2ccccc2Cl)c1-c1ccc(Cl)cc1 [[1.6], [3-(4-Benzyl-4-hydroxy-piperidine-1-carbonyl)-5-(4-chloro-phenyl)-1-(2-chloro-phenyl)-1H-pyrazol-4-yl]-acetic acid] |
| < 300 nM | O=C(O)Cc1c(C(=O)N2CCC(O)(c3ccc(F)cc3)CC2)nn(-c2ccccc2Cl)c1-c1ccc(Cl)cc1 [[1.7], {1-(2-Chloro-phenyl)-5-(4-chloro-phenyl)-3-[4-(4-fluoro-phenyl)-4-hydroxy-piperidine-1-carbonyl]-1H-pyrazol-4-yl}-acetic acid] |
| 300 to 3000 nM | O=C(O)Cc1c(C(=O)N2CCC(O)(c3ccccn3)CC2)nn(-c2ccccc2Cl)c1-c1ccc(Cl)cc1 [[1.9], [1-(2-Chloro-phenyl)-5-(4-chloro-phenyl)-3-(4′-hydroxy-3′,4′,5′,6′-tetrahydro-2′H-[2,4′]bipyridinyl-1′-carbonyl)-1H-pyrazol-4yl]-acetic acid] |
| < 300 nM | O=C(O)Cc1c(C(=O)N2CCC(O)(c3ccc(C(F)(F)F)cc3)CC2)nn(-c2ccccc2Cl)c1-c1ccc(Cl)cc1 [[1.10], {1-(2-Chloro-phenyl)-5-(4-chloro-phenyl)-3-[4-hydroxy-4-(4-trifluoromethyl-phenyl)-piperidine-1-carbonyl]-1H-pyrazol-4-yl}-acetic acid] |
| < 300 nM | O=C(O)Cc1c(C(=O)N2CCC(O)(c3cccc(C(F)(F)F)c3)CC2)nn(-c2ccccc2Cl)c1-c1ccc(Cl)cc1 [[1.11], {1-(2-Chloro-phenyl)-5-(4-chloro-phenyl)-3-[4-hydroxy-4-(3-trifluoromethyl-phenyl)-piperidine-1-carbonyl]-1H-pyrazol-4-yl}-acetic acid] |
| < 300 nM | O=C(O)Cc1c(C(=O)N2CCC(O)(c3ccc(Cl)cc3)CC2)nn(-c2ccccc2Cl)c1-c1ccc(Cl)cc1 [[1.12], {1-(2-Chloro-phenyl)-5-(4-chloro-phenyl)-3-[4-(4-chloro-phenyl)-4-hydroxy-piperidine-1carbonyl]-1H-pyrazol-4-yl}-acetic acid] |
| < 300 nM | O=C(O)Cc1c(C(=O)N2CCC(O)(c3ccccc3)CC2)nn(-c2ccccc2Cl)c1-c1ccc(Cl)cc1 [[1.14], [1-(2-Chloro-phenyl)-5-(4-chloro-phenyl)-3-(4-hydroxy-4-phenyl-piperidine-1-carbonyl)-1H-pyrazol-4-yl]-acetic acid] |
| < 300 nM | O=C(O)Cc1c(C(=O)N2CCC(c3ccc(F)cc3)C2)nn(-c2ccccc2Cl)c1-c1ccc(Cl)cc1 (stereo not shown) [[1.15], {1-(2-Chloro-phenyl)-5-(4-chloro-phenyl)-3-[3-(4-fluoro-phenyl)-pyrrol-idine-1-carbonyl]-1H-pyrazol-4-yl}-acetic acid] |
| 300 to 3000 nM | O=C(O)Cc1c(C(=O)N2CCN(c3ncccn3)CC2)nn(-c2ccccc2Cl)c1-c1ccc(Cl)cc1 [[1.16], [5-(4-Chloro-phenyl)-1-(2-chloro-phenyl)-3-(4-pyrimidin-2-yl-piperazine-1-carbonyl)-1H-pyrazol-4-yl]-acetic acid] |
| < 300 nM | COC1(c2ccc(F)cc2)CCN(C(=O)c2nn(-c3ccccc3Cl)c(-c3ccc(Cl)cc3)c2CC(=O)O)CC1 [[1.17], {5-(4-Chloro-phenyl)-1-(2-chloro-phenyl)-3-[4-(4-fluoro-phenyl)-4-methoxy-piperidine-1carbonyl]-1H-pyrazol-4-yl}-acetic acid] |
| 300 to 3000 nM | Cc1noc(C2CCN(C(=O)c3nn(-c4ccccc4Cl)c(-c4ccc(Cl)cc4)c3CC(=O)O)CC2)n1 [[1.20], {1-(2-Chloro-phenyl)-5-(4-chloro-phenyl)-3-[4-(3-methyl-[1,2,4]oxadiazol-5-yl)-piperidine-1-carbonyl]-1H-pyrazol-4-yl}-acetic acid] |
